The Kd is the equilibrium constant for the complex coming apart. Low values mean tighter binding, high ones weaker binding.

Structures are written as SMILES.

The values that follow come from patent US20240252488A1 (KOREA RESEARCH INSTITUTE OF CHEMICAL TECHNOLOGY, priority 2020, published 2024).

For one assay, the system named is FADD−/− Jurkat cells. Put plainly: Necroptosis inhibition assay, TNF-α-induced necroptosis (CellTiter-Glo 2.0). Format: cell-based, human. The settings on record: TNF-α 15 ng/mL; for Necroptosis inhibition assay (Rescue %) 1 μM: compound 1 μM; for Necroptosis inhibition assay (Rescue %) 10 μM: compound 10 μM. The essentials: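 Tested at three fixed concentrations (0.1, 1, 10 μM final) with a 30-minute room-temperature preincubation ahead of 15 ng/mL TNF-α challenge lasting 20 to 24 hours. Inhibition rate and cytotoxicity derive from ATP luminescence.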

Assay [1] addresses T1, MLKL (Homo sapiens, UniProt Q8NB16).
T1 sequence (Q8NB16 1-471): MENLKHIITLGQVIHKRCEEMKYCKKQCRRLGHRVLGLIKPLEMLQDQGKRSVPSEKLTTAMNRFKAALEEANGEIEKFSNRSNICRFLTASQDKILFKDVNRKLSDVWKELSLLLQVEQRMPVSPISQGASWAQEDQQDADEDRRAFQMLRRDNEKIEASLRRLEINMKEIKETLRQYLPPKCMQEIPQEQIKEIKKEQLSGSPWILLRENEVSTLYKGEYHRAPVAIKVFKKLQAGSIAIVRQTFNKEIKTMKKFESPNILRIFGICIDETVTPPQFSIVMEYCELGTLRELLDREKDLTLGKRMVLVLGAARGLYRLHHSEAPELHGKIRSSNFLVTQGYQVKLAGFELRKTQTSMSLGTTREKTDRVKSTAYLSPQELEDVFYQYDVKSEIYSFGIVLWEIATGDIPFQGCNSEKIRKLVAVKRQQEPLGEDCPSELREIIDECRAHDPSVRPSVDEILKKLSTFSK
Put plainly: Measurement of binding affinity with MLKL receptor (competitive binding assay, Kd). Details: made in house; host or cells: HEK 293 cell line (T7 phage in E. coli BL21-derived host is also described). In short, it runs like this: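 Kd comes from a bead-based competition format: compound-dependent loss of DNA-tagged, HEK 293-expressed MLKL capture, measured as eluate kinase by qPCR. Final DMSO is 0.9%.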

The target in assay [2] is T1, MLKL. Description: MLKL degradation assay in HepG2 cell line (western blot). Format: cell-based. Details: endogenous in cells; host or cells: HepG2 or HaCaT. The note with it: cell line not given; for Degradation assay (Degradation %) 1 μM: compound 1 μM; for Degradation assay (Degradation %) 10 μM: compound 10 μM. In short, it runs like this:
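Degradation is judged from MLKL band intensity on immunoblots of HepG2 lysates taken after 20-24 hours of compound at final 1 or 10 μM.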

`Nc1ncc(-c2cnn(C3CCN(C(=O)COC4CCN(C(=O)C5CCN(c6ccc7c(c6)C(=O)N(C6CCC(=O)NC6=O)C7=O)CC5)CC4)CC3)c2)nc1C(=O)O[C@@H](C(=O)Nc1ccc(F)cc1)c1ccccc1` (stereo partly drawn) [TDH-398, (R)-2-((4-fluorophenyl)amino)-2-oxo-1-phenylethyl 3-amino-6-(1-(1-(2-((1-(1-(2-(2,6-dioxopiperidin-3-yl)-1,3-dioxoisoindolin-5-yl)piperidine-4-carbonyl)piperidin-4-yl)oxy)acetyl)piperidin-4-yl)-1H-pyrazol-4-yl)pyrazine-2-carboxylate]: in the assay on FADD−/− Jurkat cells, the “Necroptosis inhibition assay (Rescue %) 1 μM” value is listed as 36.81% and the “Necroptosis inhibition assay (Rescue %) 10 μM” value is 30.39%. This compound also yielded a Kd on MLKL [1] of 8.9 nM. In addition, at MLKL [2], the “Degradation assay (Degradation %) 1 μM” value is listed as 88.25% and the “Degradation assay (Degradation %) 10 μM” value was found to be 83.83%.

For the compound `Nc1ncc(-c2cnn(C3CCN(C(=O)CC4CCN(C(=O)C5CCN(c6cccc7c6C(=O)N(C6CCC(=O)NC6=O)C7=O)CC5)CC4)CC3)c2)nc1C(=O)O[C@@H](C(=O)Nc1ccc(F)cc1)c1ccccc1` (stereo partly drawn) [TDH-341, (R)-2-((4-fluorophenyl)amino)-2-oxo-1-phenylethyl 3-amino-6-(1-(1-(2-(1-(1-(2-(2,6-dioxopiperidin-3-yl)-1,3-dioxoisoindolin-4-yl)piperidine-4-carbonyl)piperidin-4-yl)acetyl)piperidin-4-yl)-1H-pyrazol-4-yl)pyrazine-2-carboxylate], in the assay with FADD−/− Jurkat cells, the “Necroptosis inhibition assay (Rescue %) 1 μM” value is reported as 38.23% and the “Necroptosis inhibition assay (Rescue %) 10 μM” value is on record as 24.8%. This compound came in with a Kd on MLKL [1] of 3.5 nM. In addition, on MLKL [2], the “Degradation assay (Degradation %) 1 μM” value stood at 70.78% and the “Degradation assay (Degradation %) 10 μM” value was 51.56%.

As for `Nc1ncc(-c2cnn(C3CCN(CCOCCOCCNC(=O)CNc4cccc5c4C(=O)N(C4CCC(=O)NC4=O)C5=O)CC3)c2)nc1C(=O)N[C@@H](C(=O)Nc1ccc(F)cc1)c1ccccc1` (stereo partly drawn) [TDH-217, 3-amino-6-(1-(1-(2-(2-(2-(2-((2-(2,6-dioxopiperidin-3-yl)-1,3-dioxoisoindolin-4-yl)amino)acetamido)ethoxy)ethoxy)ethyl)piperidin-4-yl)-1H-pyrazol-4-yl)-N-((R)-2-((4-fluorophenyl)amino)-2-oxo-1-phenylethyl)pyrazine-2-carboxamide], in the assay with FADD−/− Jurkat cells, the “Necroptosis inhibition assay (Rescue %) 1 μM” value is recorded as 24.76% and the “Necroptosis inhibition assay (Rescue %) 10 μM” value is 48.87%. This compound yielded a Kd at MLKL [1] of 66 nM. Also, at MLKL [2], the “Degradation assay (Degradation %) 1 μM” value turned out to be 11.62% and the “Degradation assay (Degradation %) 10 μM” value was found to be 31.11%.

On to `Nc1ncc(-c2cnn(C3CCN(C(=O)c4cn(C5CCN(C(=O)CNc6ccc7c(c6)C(=O)N(C6CCC(=O)NC6=O)C7=O)CC5)cn4)CC3)c2)nc1C(=O)O[C@@H](C(=O)Nc1ccc(F)cc1)c1ccccc1` (stereo partly drawn) [TDH-361, (R)-2-((4-fluorophenyl)amino)-2-oxo-1-phenylethyl 3-amino-6-(1-(1-(1-(1-((2-(2,6-dioxopiperidin-3-yl)-1,3-dioxoisoindolin-5-yl)glycyl)piperidin-4-yl)-1H-imidazole-4-carbonyl)piperidin-4-yl)-1H-pyrazol-4-yl)pyrazine-2-carboxylate], for which, in the assay with FADD−/− Jurkat cells, the “Necroptosis inhibition assay (Rescue %) 1 μM” value came to 19.10% and the “Necroptosis inhibition assay (Rescue %) 10 μM” value is 10.01%. At MLKL [1], this compound yielded a Kd of 1.7 nM. Further, at MLKL [2], the “Degradation assay (Degradation %) 1 μM” value is given as 51.1% and the “Degradation assay (Degradation %) 10 μM” value came out at 48.59%.

For `Nc1ncc(-c2cnn(C3CCN(CCOCCOCCNC(=O)C4CN(c5cccc6c5C(=O)N(C5CCC(=O)NC5=O)C6=O)C4)CC3)c2)nc1C(=O)O[C@@H](C(=O)Nc1ccc(F)cc1)c1ccccc1` (stereo partly drawn) [TDH-115, (R)-2-((4-fluorophenyl)amino)-2-oxo-1-phenylethyl 3-amino-6-(1-(1-(2-(2-(2-(1-(2-(2,6-dioxopiperidin-3-yl)-1,3-dioxoisoindolin-4-yl)azetidine-3-carboxamido)ethoxy)ethoxy)ethyl)piperidin-4-yl)-1H-pyrazol-4-yl)pyrazine-2-carboxylate], in the assay with FADD−/− Jurkat cells, the “Necroptosis inhibition assay (Rescue %) 1 μM” value amounted to 12.42% and the “Necroptosis inhibition assay (Rescue %) 10 μM” value is reported as 3.59%. On MLKL [1], this compound registered a Kd of 6.3 nM. For the same compound, at MLKL [2], the “Degradation assay (Degradation %) 1 μM” value is 10.31% and the “Degradation assay (Degradation %) 10 μM” value is on record as 24.21%.

Take `Nc1ncc(-c2cnn(C3CCN(CCCN4CCN(c5ccc6c(c5)C(=O)N(C5CCC(=O)NC5=O)C6=O)CC4)CC3)c2)nc1C(=O)N[C@@H](C(=O)Nc1ccc(F)cc1)c1ccccc1` (stereo partly drawn) [TDH-491, 3-amino-6-(1-(1-(3-(4-(2-(2,6-dioxopiperidin-3-yl)-1,3-dioxoisoindolin-5-yl)piperazin-1-yl)propyl)piperidin-4-yl)-1H-pyrazol-4-yl)-N-((R)-2-((4-fluorophenyl)amino)-2-oxo-1-phenylethyl)pyrazine-2-carboxamide]: in the assay on FADD−/− Jurkat cells (FADD−/− Jurkat cells), the “Necroptosis inhibition assay (Rescue %) 1 μM” value is 0.07% and the “Necroptosis inhibition assay (Rescue %) 10 μM” value was −24.78%. This compound displayed a Kd at MLKL [1] of 78 nM. Moreover, at MLKL [2], the “Degradation assay (Degradation %) 1 μM” value came to 19.04% and the “Degradation assay (Degradation %) 10 μM” value stood at 14.39%.

Consider `Nc1ncc(-c2cnn(C3CCN(CCOCCNC(=O)COc4ccc5c(c4)C(=O)N(C4CCC(=O)NC4=O)C5=O)CC3)c2)nc1C(=O)O[C@@H](C(=O)Nc1ccc(F)cc1)c1ccccc1` (stereo partly drawn) [TDH-168, (R)-2-((4-fluorophenyl)amino)-2-oxo-1-phenylethyl 3-amino-6-(1-(1-(2-(2-(2-((2-(2,6-dioxopiperidin-3-yl)-1,3-dioxoisoindolin-5-yl)oxy)acetamido)ethoxy)ethyl)piperidin-4-yl)-1H-pyrazol-4-yl)pyrazine-2-carboxylate], for which, in the assay on FADD−/− Jurkat cells, the “Necroptosis inhibition assay (Rescue %) 1 μM” value was determined as 31.24% and the “Necroptosis inhibition assay (Rescue %) 10 μM” value stood at 40.55%. Also, the Kd on MLKL [1] worked out at 7.1 nM. Also, at MLKL [2], the “Degradation assay (Degradation %) 10 μM” value was 24.52%.

With `Nc1ncc(-c2cnn(C3CCN(CC4CCN(C(=O)C5CN(c6cccc7c6C(=O)N(C6CCC(=O)NC6=O)C7=O)C5)CC4)CC3)c2)nc1C(=O)O[C@@H](C(=O)Nc1ccc(F)cc1)c1ccccc1` (stereo partly drawn) [TDH-138, (R)-2-((4-fluorophenyl)amino)-2-oxo-1-phenylethyl 3-amino-6-(1-(1-((1-(1-(2-(2,6-dioxopiperidin-3-yl)-1,3-dioxoisoindolin-4-yl)azetidine-3-carbonyl)piperidin-4-yl)methyl)piperidin-4-yl)-1H-pyrazol-4-yl)pyrazine-2-carboxylate], in the assay on FADD−/− Jurkat cells, the “Necroptosis inhibition assay (Rescue %) 1 μM” value was found to be 70.53% and the “Necroptosis inhibition assay (Rescue %) 10 μM” value turned out to be 60.57%. At MLKL [1], this compound registered a Kd of 4.2 nM. Moreover, on MLKL [2], the “Degradation assay (Degradation %) 1 μM” value is given as 40.46% and the “Degradation assay (Degradation %) 10 μM” value is reported as 25.69%.

Turning to `Nc1ncc(-c2cnn(C3CCN(C(=O)C4CCN(C(=O)CNc5ccc6nnn(C7CCC(=O)NC7=O)c(=O)c6c5)CC4)CC3)c2)nc1C(=O)O[C@@H](C(=O)Nc1ccc(F)cc1)c1ccccc1` (stereo partly drawn) [TDH-408, (R)-2-((4-fluorophenyl)amino)-2-oxo-1-phenylethyl 3-amino-6-(1-(1-(1-((3-(2,6-dioxopiperidin-3-yl)-4-oxo-3,4-dihydrobenzo[d][1,2,3]triazin-6-yl)glycyl)piperidine-4-carbonyl)piperidin-4-yl)-1H-pyrazol-4-yl)pyrazine-2-carboxylate], in the assay with FADD−/− Jurkat cells (FADD−/− Jurkat cells), the “Necroptosis inhibition assay (Rescue %) 1 μM” value worked out at 26.68% and the “Necroptosis inhibition assay (Rescue %) 10 μM” value amounted to 19.89%. This compound also displayed a Kd at MLKL [1] of 0.57 nM. On MLKL [2], the “Degradation assay (Degradation %) 1 μM” value amounted to 77.02% and the “Degradation assay (Degradation %) 10 μM” value is 44.73%.

Consider `Nc1ncc(-c2cnn(C3CCN(CCOC4CCN(c5ccc6c(c5)C(=O)N(C5CCC(=O)NC5=O)C6=O)CC4)CC3)c2)nc1C(=O)OC(C(=O)Nc1ccc(F)cc1)c1ccccc1` (stereo not shown) [TDH-254, 2-((4-fluorophenyl)amino)-2-oxo-1-phenylethyl 3-amino-6-(1-(1-(2-((1-(2-(2,6-dioxopiperidin-3-yl)-1,3-dioxoisoindolin-5-yl)piperidin-4-yl)oxy)ethyl)piperidin-4-yl)-1H-pyrazol-4-yl)pyrazine-2-carboxylate], for which, in the assay with FADD−/− Jurkat cells, the “Necroptosis inhibition assay (Rescue %) 1 μM” value is recorded as 24.05% and the “Necroptosis inhibition assay (Rescue %) 10 μM” value was found to be 15.37%. This compound came in with a Kd at MLKL [1] of 8 nM. Also, at MLKL [2], the “Degradation assay (Degradation %) 1 μM” value was found to be 19.16% and the “Degradation assay (Degradation %) 10 μM” value amounted to 25.97%.
